{"source": "patent US20170045529A1", "about": "“METHODS OF MEASURING ANTIGEN-SPECIFIC T CELLS” (ImmusanT, Inc., priority 2014, published 2017)", "format_in_all_cases": "cell-based, human", "key": {"whole blood [1]": {"test_system": "whole blood", "test": "Whole blood IP-10 release to peptide pools and individual peptides, MAGPIX multiplex bead assay (Example 3)", "details": "Table 10C, 10 uM"}, "whole blood [2]": {"test_system": "whole blood", "test": "Whole blood IL-2 release to peptide pools and individual peptides, MAGPIX multiplex bead assay (Example 3)", "details": "10 uM"}, "whole blood [3]": {"test_system": "whole blood", "test": "Whole blood IFN-γ release to peptide pools and individual peptides, MAGPIX multiplex bead assay (Example 3)", "details": "10 uM"}, "[4]": {"details": "Subject 1, day 0 since commencing oral challenge"}, "[5]": {"details": "Subject 1, day 6 since commencing oral challenge"}, "[6]": {"details": "Subject 2, day 0 since commencing oral challenge"}, "[7]": {"details": "Subject 2, day 6 since commencing oral challenge"}, "[8]": {"details": "Subject 6, day 0 since commencing oral challenge"}, "[9]": {"details": "Subject 6, day 6 since commencing oral challenge"}, "[10]": {"details": "Subject 7, day 0 since commencing oral challenge"}, "[11]": {"details": "Subject 7, day 6 since commencing oral challenge"}, "[12]": {"details": "Subject 1 (HLA-DQ 2.5, 8), day 0 of oral challenge"}, "[13]": {"details": "Subject 1 (HLA-DQ 2.5, 8), day 6 of oral challenge"}, "[14]": {"details": "Subject 2 (HLA-DQ 2.5, 8), day 0 of oral challenge"}, "[15]": {"details": "Subject 2 (HLA-DQ 2.5, 8), day 6 of oral challenge"}, "[16]": {"details": "Subject 6 (HLA-DQ 2.5), day 0 of oral challenge"}, "[17]": {"details": "Subject 6 (HLA-DQ 2.5), day 6 of oral challenge"}, "[18]": {"details": "Subject 7 (HLA-DQ 2.5, 8), day 0 of oral challenge"}, "[19]": {"details": "Subject 7 (HLA-DQ 2.5, 8), day 6 of oral challenge"}}, "note": "Non-standard residues stand in square brackets, D forms with d. pGlu = O=C1CC[C@@H](C(=O)O)N1"}
{"substance": "(pE)QPFPQPEQPFPWQP-NH2 ([pGlu]QPFPQPEQPFPWQP-NH2; SMILES NC(=O)CC[C@H](NC(=O)[C@H](Cc1c[nH]c2ccccc12)NC(=O)[C@@H]1CCCN1C(=O)[C@H](Cc1ccccc1)NC(=O)[C@@H]1CCCN1C(=O)[C@H](CCC(N)=O)NC(=O)[C@H](CCC(=O)O)NC(=O)[C@@H]1CCCN1C(=O)[C@H](CCC(N)=O)NC(=O)[C@@H]1CCCN1C(=O)[C@H](Cc1ccccc1)NC(=O)[C@@H]1CCCN1C(=O)[C@H](CCC(N)=O)NC(=O)[C@@H]1CCC(=O)N1)C(=O)N1CCC[C@H]1C(N)=O)", "values": [{"measurement": "Whole blood IP-10 release, Concentration", "setting": "whole blood [1]; [4]", "value": 218, "unit": "pg/mL"}, {"measurement": "Whole blood IP-10 release, Fold-change over medium only", "setting": "whole blood [1]; [4]", "value": 0.82}, {"measurement": "Whole blood IP-10 release, Concentration", "setting": "whole blood [1]; [5]", "value": 501, "unit": "pg/mL"}, {"measurement": "Whole blood IP-10 release, Fold-change over medium only", "setting": "whole blood [1]; [5]", "value": 1.49}, {"measurement": "Whole blood IP-10 release, Concentration", "setting": "whole blood [1]; [6]", "value": 376, "unit": "pg/mL"}, {"measurement": "Whole blood IP-10 release, Fold-change over medium only", "setting": "whole blood [1]; [6]", "value": 1.42}, {"measurement": "Whole blood IP-10 release, Concentration", "setting": "whole blood [1]; [7]", "value": 1140, "unit": "pg/mL"}, {"measurement": "Whole blood IP-10 release, Fold-change over medium only", "setting": "whole blood [1]; [7]", "value": 3.65}, {"measurement": "Whole blood IP-10 release, Concentration", "setting": "whole blood [1]; [8]", "value": 1934, "unit": "pg/mL"}, {"measurement": "Whole blood IP-10 release, Fold-change over medium only", "setting": "whole blood [1]; [8]", "value": 6.98}, {"measurement": "Whole blood IP-10 release, Concentration", "setting": "whole blood [1]; [9]", "value": 10000, "unit": "pg/mL"}, {"measurement": "Whole blood IP-10 release, Fold-change over medium only", "setting": "whole blood [1]; [9]", "value": 49.76}, {"measurement": "Whole blood IP-10 release, Concentration", "setting": "whole blood [1]; [10]", "value": 900, "unit": "pg/mL"}, {"measurement": "Whole blood IP-10 release, Fold-change over medium only", "setting": "whole blood [1]; [10]", "value": 1.21}, {"measurement": "Whole blood IP-10 release, Concentration", "setting": "whole blood [1]; [11]", "value": 10000, "unit": "pg/mL"}, {"measurement": "Whole blood IP-10 release, Fold-change over medium only", "setting": "whole blood [1]; [11]", "value": 11.21}, {"measurement": "Whole blood IL-2 release, Concentration", "setting": "whole blood [2]; [12]", "value": 3.2, "unit": "pg/mL"}, {"measurement": "Whole blood IL-2 release, Fold-change over medium only", "setting": "whole blood [2]; [12]", "value": 1.00}, {"measurement": "Whole blood IL-2 release, Concentration", "setting": "whole blood [2]; [13]", "value": 3.2, "unit": "pg/mL"}, {"measurement": "Whole blood IL-2 release, Fold-change over medium only", "setting": "whole blood [2]; [13]", "value": 1.00}, {"measurement": "Whole blood IL-2 release, Concentration", "setting": "whole blood [2]; [14]", "value": 3.2, "unit": "pg/mL"}, {"measurement": "Whole blood IL-2 release, Fold-change over medium only", "setting": "whole blood [2]; [14]", "value": 1.00}, {"measurement": "Whole blood IL-2 release, Concentration", "setting": "whole blood [2]; [15]", "value": 5.2, "unit": "pg/mL"}, {"measurement": "Whole blood IL-2 release, Fold-change over medium only", "setting": "whole blood [2]; [15]", "value": 1.61}, {"measurement": "Whole blood IL-2 release, Concentration", "setting": "whole blood [2]; [16]", "value": 17.9, "unit": "pg/mL"}, {"measurement": "Whole blood IL-2 release, Fold-change over medium only", "setting": "whole blood [2]; [16]", "value": 3.62}, {"measurement": "Whole blood IL-2 release, Concentration", "setting": "whole blood [2]; [17]", "value": 115.9, "unit": "pg/mL"}, {"measurement": "Whole blood IL-2 release, Fold-change over medium only", "setting": "whole blood [2]; [17]", "value": 27.33}, {"measurement": "Whole blood IL-2 release, Concentration", "setting": "whole blood [2]; [18]", "value": 41.4, "unit": "pg/mL"}, {"measurement": "Whole blood IL-2 release, Fold-change over medium only", "setting": "whole blood [2]; [18]", "value": 0.66}, {"measurement": "Whole blood IL-2 release, Concentration", "setting": "whole blood [2]; [19]", "value": 55.1, "unit": "pg/mL"}, {"measurement": "Whole blood IL-2 release, Fold-change over medium only", "setting": "whole blood [2]; [19]", "value": 1.31}, {"measurement": "Whole blood IFNg release, Concentration", "setting": "whole blood [3]; [12]", "value": 60, "unit": "pg/mL"}, {"measurement": "Whole blood IFNg release, Fold-change over medium only", "setting": "whole blood [3]; [12]", "value": 1.09}, {"measurement": "Whole blood IFNg release, Concentration", "setting": "whole blood [3]; [13]", "value": 62, "unit": "pg/mL"}, {"measurement": "Whole blood IFNg release, Fold-change over medium only", "setting": "whole blood [3]; [13]", "value": 0.95}, {"measurement": "Whole blood IFNg release, Concentration", "setting": "whole blood [3]; [14]", "value": 4.5, "unit": "pg/mL"}, {"measurement": "Whole blood IFNg release, Fold-change over medium only", "setting": "whole blood [3]; [14]", "value": 1.19}, {"measurement": "Whole blood IFNg release, Concentration", "setting": "whole blood [3]; [15]", "value": 6.4, "unit": "pg/mL"}, {"measurement": "Whole blood IFNg release, Fold-change over medium only", "setting": "whole blood [3]; [15]", "value": 1.32}, {"measurement": "Whole blood IFNg release, Concentration", "setting": "whole blood [3]; [16]", "value": 94, "unit": "pg/mL"}, {"measurement": "Whole blood IFNg release, Fold-change over medium only", "setting": "whole blood [3]; [16]", "value": 0.98}, {"measurement": "Whole blood IFNg release, Concentration", "setting": "whole blood [3]; [17]", "value": 258, "unit": "pg/mL"}, {"measurement": "Whole blood IFNg release, Fold-change over medium only", "setting": "whole blood [3]; [17]", "value": 2.63}, {"measurement": "Whole blood IFNg release, Concentration", "setting": "whole blood [3]; [18]", "value": 158, "unit": "pg/mL"}, {"measurement": "Whole blood IFNg release, Fold-change over medium only", "setting": "whole blood [3]; [18]", "value": 0.66}, {"measurement": "Whole blood IFNg release, Concentration", "setting": "whole blood [3]; [19]", "value": 150, "unit": "pg/mL"}, {"measurement": "Whole blood IFNg release, Fold-change over medium only", "setting": "whole blood [3]; [19]", "value": 1.00}]}
